The text below walks through data of paper PMC8467647, “Identification of Small Molecule Inhibitors against Staphylococcus aureus Dihydroorotase via HTS” (International Journal of Molecular Sciences, 2021).

T1: SaDHOase (Staphylococcus aureus, UniProt Q5HGN1)
T1 construct: The full-length SaDHOase was expressed and purified following the cloning of the SaDHO gene; His-SUMO with HRV 3C protease site (N, cleaved yes); made in house; host or cells: E. coli BL21 (DE3)
T1 sequence (Q5HGN1 1-424): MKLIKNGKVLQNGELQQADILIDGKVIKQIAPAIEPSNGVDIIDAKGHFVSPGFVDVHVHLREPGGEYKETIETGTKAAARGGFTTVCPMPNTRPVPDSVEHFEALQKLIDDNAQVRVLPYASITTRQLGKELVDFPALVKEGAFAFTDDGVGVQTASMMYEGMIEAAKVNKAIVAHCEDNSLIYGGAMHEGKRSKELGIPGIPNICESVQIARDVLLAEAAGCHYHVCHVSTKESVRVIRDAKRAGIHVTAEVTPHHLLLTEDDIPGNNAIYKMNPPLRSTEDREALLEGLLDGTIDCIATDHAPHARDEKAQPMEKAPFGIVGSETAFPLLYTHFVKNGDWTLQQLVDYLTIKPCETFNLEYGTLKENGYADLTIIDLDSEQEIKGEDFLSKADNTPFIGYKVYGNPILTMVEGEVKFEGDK

B1: SaDHOase (Staphylococcus aureus subsp. aureus COL) (protein)
chain: MKLIKNGKVLQNGELQQADILIDGKVIKQIAPAIEPSNGVDIIDAKGHFVSPGFVDVHVHLREPGGEYKETIETGTKAAARGGFTTVCPMPNTRPVPDSVEHFEALQKLIDDNAQVRVLPYASITTRQLGKELVDFPALVKEGAFAFTDDGVGVQTASMMYEGMIEAAKVNKAIVAHCEDNSLIYGGAMHEGKRSKELGIPGIPNICESVQIARDVLLAEAAGCHYHVCHVSTKESVRVIRDAKRAGIHVTAEVTPHHLLLTEDDIPGNNAIYKMNPPLRSTEDREALLEGLLDGTIDCIATDHAPHARDEKAQPMEKAPFGIVGSETAFPLLYTHFVKNGDWTLQQLVDYLTIKPCETFNLEYGTLKENGYADLTIIDLDSEQEIKGEDFLSKADNTPFIGYKVYGNPILTMVEGEVKFEGDK
notes: The full-length SaDHOase was expressed and purified following the cloning of the SaDHO gene; His-SUMO with HRV 3C protease site (N, cleaved yes); made in house; host or cells: E. coli BL21 (DE3)

The target in the first data set is T1, SaDHOase. In words: Competition SPR in the presence of 1 mM substrate Ca-asp. It is filed as binding. The settings on record: KD with 1 mM Ca-asp vs compound alone. How it is done: (§1) The KD was determined using the response units during the equilibration phase of each concentration of the compound. […] In order to determine the mechanism of action, competition SPR studies were done in the presence of high concentration of the substrate Ca-asp (KM = 110 µM) (Figure 3A). Dose-response curve of the tightest binder (5) is shown as an example (Figure 3C).
(§2) For KD determination of analogs, DHOase was immobilized to flow channels 2, 3 and 4 at levels of 10,160 RU, 12,072 RU and 11,358 RU, respectively. 1 mM Ca-asp was additionally added to the binding buffer for a competition SPR. The sensorgrams were analyzed using BiaEvaluation software 2.0.3. All data was referenced to a blank channel RU signal prior to the fitting. The RU difference at each concentration was measured during the binding equilibration phase, and BiaEvaluation software v2.0.3 was used to fit the data to determine KD values. The RU values and corresponding concentrations were plotted using the single hyperbolic Function (1), where y is the response; ymax is the maximum response, and x is the compound concentration. (1) y=ymax·x/(KD+x)
Turning to `NC1C(=O)Nc2ccc(Br)cc21` (stereo not shown) [Compound 1], the “Weakening of binding affinity in the presence of 1 mM Ca-asp” value is on record as ~ 2.8 fold.

Staying with this data set, now noted: competition SPR, 1 mM Ca-asp.
With `Cn1c(SCC#N)nc2ccccc2c1=O` [Compound 2], the “Effect of substrate Ca-asp on binding (mode of binding)” value is on record as “not affected by Ca-asp presence”.

A further data set addresses T1, SaDHOase. In words: SPR direct binding, steady-state affinity KD determination. To be noted: compound alone, immobilized SaDHOase, 25 °C, steady-state affinity fit. How it is done: as §1
Purified histidine-tag cleaved DHOase was buffer exchanged to PBS (10 mM phosphate, pH 7.4, 2.7 mM KCl and 137 mM NaCl) for SPR. SPR was performed at 25 °C using a Biacore T200 instrument and a CM5 sensor chip (GE Healthcare). The flow channels were activated by a 1-ethyl-3-(3-dimethylaminopropyl) carbodiimide hydrochloride (EDC)/N-hydroxy succinimide (NHS) mixture. Flow channel 1 was left unmodified as a control. DHOase was diluted in 10 mM sodium acetate (pH 4.0) and immobilized to flow channels 2 and 3 at levels of 8596 RU and 8342 RU, respectively. Fragment solutions at 65 μM and 200 μM were applied to all three channels at a 30 μL/min flow rate. For KD determination, fragment solutions at increasing concentrations (0–400 μM at 2-fold dilution) were applied to all three channels at a 30 μL/min flow rate. The SPR binding buffer was PBS-P supplemented with 2% DMSO and 0.5 mM TCEP. All data was referenced with the blank channel RU values, and the sensorgrams were analyzed using Biacore T200 evaluation software v2.0.3. The response units at each concentration was measured during the equilibration phase for the steady-state affinity fittings.
as §2
As for `OC1CCN(Cc2cccc(C(F)(F)F)c2)CC1` [Compound 11], the KD entry is listed as “eliminates all bonding” and the Kd was above 400 µM. In the case of `OC1CCN(Cc2ccc(C(F)(F)F)cc2)CC1` [Compound 12], the dissociation constant (Kd) was determined as 48 ± 24 µM. Same read-out and setting: under `Cc1ccc(CN2CCC(O)CC2)cc1` [Compound 5] stands 48 µM. Still for that read-out and setting: then `CCc1ccc(CN2CCC(O)CC2)cc1` [Compound 9], with 125 ± 20 µM; and `NC1C(=O)Nc2ccc(Br)cc21` (stereo not shown) [Compound 1], with 205 µM; and `Cc1ccc(CN2CCCC(O)C2)c(C)c1` (stereo not shown) [Compound 13], with 77 ± 15 µM. Same read-out and setting: then `Cc1ccccc1CN1CCCN(C)CC1` [Compound 3], with 156 µM.

Take `Cc1ccccc1CN1CCC(O)CC1` [Compound 7]: the equilibrium dissociation constant (Kd) stood at 41 ± 18 µM. As to `Cc1cccc(CN2CCC(O)CC2)c1` [Compound 10], the KD result was “eliminates all bonding” and the Kd was above 400 µM. For the molecule `Cc1ccc(C)c(CN2CCC(O)CC2)c1` [Compound 8], the Kd came to 11 ± 5 µM. The same measure, in the same setting: under `Cc1cccc(CN2CCCC(CO)C2)c1` (stereo not shown) [Compound 14] stands 38 ± 5 µM. For `Cn1c(SCC#N)nc2ccccc2c1=O` [Compound 2], the Kd is 98 µM. Against the preceding molecule, the Kd is about 2.6-fold higher.

`CCNC(=O)N1CCC(N)CC1` [Compound 4] gave a Kd of 274 µM. `OC1CCN(Cc2cccc(Cl)c2Cl)CC1` [Compound 6]: the affinity, expressed as Kd, was 90 ± 4 µM.

Substrate in a further data set: NC(=O)N[C@@H](CC(=O)O)C(=O)O
As to the kind of experiment: SaDHOase enzyme activity (substrate KM). It is filed as biochemical, Staphylococcus aureus. To be noted: other: substrate of SaDHOase. How it is done:
The full-length SaDHOase was expressed and purified following the cloning of the SaDHO gene according to previously published methods. Purified SaDHOase enzyme activity was measured and confirmed by two methods, one by observing the production of Ca-asp (reverse reaction) at a UV-Vis absorption of 540 nm (TSC-DAMO method) and the other with continuously monitoring reduction of DHO at 230 nm (Figure 1A). Enzyme rates were calculated using the measured slopes, path length of 0.44 cm and the extinction coefficient (ε) of DHO at 230 nm, 1.17 mM^−1 cm^−1 [14].
Take B1: the Km turned out to be 110 µM.
